# Entries after “also recorded” stand apart in the source; their conditions may differ. Square brackets hold non-standard residues; d marks the D form. Peptide text beside a SMILES is read from it. dTrp(2-Me) = Cc1[nH]c2ccccc2c1C[C@@H](N)C(=O)O
# Experiments:
# [1] = system: ApoE KO mouse macrophages; assay: Foam cell assay / lipid accumulation in primary macrophages incubated with oxLDL; format: cell-based; conditions: 48 h, vs oxLDL alone
# Protocol: FIG. 5. Effects of SAB on lipid accumulation in ApoE KO mouse macrophages. Primary macrophages were seeded in 4 chamber slides and then incubated with 20 μg/ml oxLDL and/or different concentrations of SAB for 48 h. (A-D) Lipids were stained with oil red O and examined by microscopy; representative images are shown. (A), vehicle only; (B), 25 μM SAB treatment; (C), 20 μg/ml oxLDL; (D), 20 μg/ml oxLDL+25 μM SAB. Scale bar, 50 μm; higher magnification micrographs of oil red O stains were shown in upper-right of each picture. (E-F), Quantification for foam cell assay in primary macrophage. White bar, macrophages incubated with vehicle only (no oxLDL or SAB); black bar, incubated with 20 μg/ml oxLDL; grey bars, incubated with 20 μg/ml oxLDL plus 10, 25 or 100 μM SAB (SAB concentration listed below each bar); (E), Degree of lipid accumulation measured as intensity of integrated optical density; (F), Foam cell average area compared to average area of control macrophages incubated with vehicle. Control (vehicle-treated) average individual macrophage cell size/ area was normalized as 1; macrophages treated with oxLDL show increased individual relative cell area resulting from lipid internalization (black bar); SAB treatment (grey bars) reduced lipid internalization and relative cell size/area. n=3-6 cells/group. **,***p<0.01, 0.001 compared with no oxLDL(0).
# SAB reduces lipid accumulation in ApoE KO mouse macrophages. Primary macrophages were isolated from ApoE KO mice and incubated with oxidized low density lipoproteins (oxLDL) and/or different concentrations of SAB for 48 h, then stained for lipid accumulation. […] Thus, CD36 antagonists can prevent accumulation of fat and lipids in cells subject to lipid-rich environments.
# SAB reduces lipid accumulation and foam cell formation. Primary macrophages cultured from ApoE KO mice show a low intensity of optical density (IOD) commensurate with small cellular area (FIGS. 5E and 5F, white bar). […]
# [2] = system: hyperlipidemic ApoE KO (AKO) mice; assay: Chronic SAB treatment of ApoE KO mice fed a high fat diet for 8 weeks: body weight, fat, cholesterol, liver and vessel lipid; format: in vivo, mouse; conditions: for average visceral fat weight: p<0.001
# From the text: (§1) FIG. 1A-1I. In vivo effect of chronic SAB treatment on physiological responses. (A), Body weight changes in ApoE KO mice fed a high fat diet for 8 weeks in vehicle (Veh)- and salvianolic acid (SAB)-treated mice. (B), Pictures were taken at the end of 8 weeks of high fat diet. […] (C), Fasting blood glucose levels. (D), Glucose tolerance test. (E), Area under curve (AUC). (F), CD36 mRNA levels in peritoneal macrophages and spleen from vehicle and SAB treated mice. (G), Measurement of lipid content from blood vessels. Lipid extraction and determination was performed using published methods (Kim et al., 2008). (H), Fold increases of plasma cholesterol levels 4 and 8 weeks after high fat diet. (I), Oil red O staining in the liver of vehicle and SAB treated mice. […] Number in parentheses indicates number of animals for the measurements.
# FIG. 2A-2B. Visceral fat weight in high fat fed ApoE KO mice treated with SAB (100 mg/kg) for 8 weeks. 100 mg/kg SAB or vehicle (veh) was injected every other day by subcutaneous injection. n=8-10/group. […] (B), SAB reduced visceral fat weight from average=81 mg/animal to average=32 mg/animal. ***, p<0.001.
# Chronic SAB treatment in hyperlipidemic ApoE KO (AKO) mice reduces weight gain and visceral fat accumulation. […] Feeding a high fat diet to the ApoE KO mice for 8 weeks increases plasma cholesterol levels approximately 5 fold (Kim et al., 2008). Six week old male ApoE KO (HL AKO) mice were fed a high fat diet for 8 weeks with or without SAB (100 mg/kg, subcutaneously every other day). […] The difference in weight between the groups was apparent by the 3rd week of treatment (FIG. 1A). […] Thus, SAB reduces body weight and fat accumulation, particularly visceral/abdominal fat accumulation and liver fat deposits, and also lowers plasma cholesterol.
# Visceral fat weight in high fat fed ApoE KO mice treated with either vehicle or SAB (100 mg/kg) for 8 weeks. 100 mg/kg SAB or vehicle (veh) was injected every other day by subcutaneous injection. n=8-10 mice/group, ***, p<0.001. […] SAB reduced visceral fat weight by 60% (32 mg average visceral fat weight in SAB treated mice versus 81 mg average visceral fat weight in controls; FIG. 2B). This provides further evidence that CD36 antagonists can reduce fat accumulation, particularly visceral fat accumulation.
# CD36 mRNA [3] = assay: CD36 gene expression in peritoneal macrophages and spleen from vehicle and SAB-treated mice; format: in vivo, mouse; conditions: SAB-treated vs vehicle mice
# From the text: as §1
# SAB treatment reduces CD36 expression in peritoneal macrophages. Since CD36 is expressed in monocytes and macrophages, CD36 gene expression was compared in peritoneal macrophages and the spleen, a peripheral organ that serves as a reservoir of monocytes, from vehicle and SAB-treated mice. CD36 mRNA levels were reduced in both peritoneal and spleen macrophages of SAB-treated mice (FIG. 1F). […]
# [4] = system: hyperlipidemic ApoE KO (AKO) mice; assay: Fasting blood glucose and glucose tolerance test in SAB-treated high fat fed ApoE KO mice; format: in vivo, mouse
# From the text: as §1
# SAB treatment improves insulin sensitivity. Fasting blood glucose levels were similar in SAB-treated and control mice at zero, four, and eight weeks of treatment (FIG. 1C). However, when mice were challenged with glucose tolerance test (an intraperitoneal injection of […]), blood glucose was cleared much faster in SAB-treated mice (45 minutes after challenge, initial blood glucose spike reduced by 75%) relative to vehicle-treated mice (45 minutes after challenge, initial spike in blood glucose reduced by less than 10%; FIG. 1D).
# CD36 [5] = target: T1, CD36 (Homo sapiens, UniProt P16671); assay: High throughput screen for CD36 antagonists
# T1 sequence (P16671 whole entry): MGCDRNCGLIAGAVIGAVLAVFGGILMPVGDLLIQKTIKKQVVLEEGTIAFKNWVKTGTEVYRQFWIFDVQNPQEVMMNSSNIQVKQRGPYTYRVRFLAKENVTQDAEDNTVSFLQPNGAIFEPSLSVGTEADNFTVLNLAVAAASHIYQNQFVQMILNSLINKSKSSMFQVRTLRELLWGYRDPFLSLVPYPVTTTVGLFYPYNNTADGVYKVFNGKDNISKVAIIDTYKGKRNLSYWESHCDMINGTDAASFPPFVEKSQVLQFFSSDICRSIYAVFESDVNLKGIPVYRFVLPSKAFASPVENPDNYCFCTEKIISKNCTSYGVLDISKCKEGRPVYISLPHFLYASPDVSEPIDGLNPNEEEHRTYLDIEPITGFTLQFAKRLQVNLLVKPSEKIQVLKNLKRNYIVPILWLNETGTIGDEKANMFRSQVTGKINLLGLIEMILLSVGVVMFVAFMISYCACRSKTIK
# From the text: Candidate modulator compounds from libraries of synthetic or natural compounds can be screened by methods known in the art (see Chinese patent number ZL200510072269.1, Publication No: CN1868546, and Chinese patent application number 200910147634.9, each hereby incorporated in its entirety by reference). Synthetic compound libraries are commercially available from a number of companies including Maybridge Chemical Co. (Trevillet, Cornwall, UK), Comgenex (Princeton, N.J.), Brandon Associates (Merrimack, N.H.), and Microsource (New Milford, Conn.). Combinatorial libraries are available or can be prepared according to known synthetic techniques. Alternatively, libraries of natural compounds in the form of bacterial, fungal, plant and animal extracts are available from e.g., Pan Laboratories (Bothell, Wash.) or MycoSearch (NC), or are readily producible by methods well known in the art. Additionally, natural and synthetically produced libraries and compounds can be further modified through conventional chemical and biochemical techniques.
# The use of high throughput screening has allowed the identification of compounds that potently antagonize CD36 in vitro. Following isolation of CD36 antagonists by in vitro testing, experiments can be conducted to test the efficacy in vivo. […]
# CD36 [6] = target: T1, CD36; conditions: Xu, Y et al., Anal Biochem 2010; cited from earlier work
# CD36 [7] = target: T1, CD36; conditions: Demers et al. 2004, cited from earlier work
# CD36 [8] = conditions: literature, cited from earlier work
# CD36 mRNA [9] = assay: CD36 siRNA transfection in C8-D1A cells, CD36 mRNA levels; format: cell-based; conditions: 20 nM siRNA, 24h after transfection, N=4, vs negative control
# Protocol: FIG. 4. Efficacy of CD36 siRNA. 20 nM siRNA either singly or in combination were transfected in C8-D1A cells. CD36 mRNA levels were measured 24h later. N=4. Negative controls were adjusted to the amount of siRNA. **p<0.01, ***p<0.001 vs correponding control.
# CD36 was inhibited using an RNAi technique. 20 nM siRNA either singly or in combination were transfected in C8-D1A cells. CD36 mRNA levels were measured 24h later. N=4. Negative controls were adjusted to the amount of siRNA. **p<0.01, ***p<0.001 vs correponding control.
# [10] = 20 μg/ml oxLDL plus 10, 25 or 100 μM SAB
# [11] = SAB 100 mg/kg s.c. every other day, high fat diet 8 weeks
compound,measurement,setting,value
"O=C(/C=C/c1ccc(O)c2c1[C@H](C(=O)O[C@H](Cc1ccc(O)c(O)c1)C(=O)O)C(c1ccc(O)c(O)c1)O2)O[C@@H](Cc1ccc(O)c(O)c1)C(=O)O (stereo in doubt) [SAB, salvianolic acid B]",lipid accumulation (oil red O staining),[1]; 20 μg/ml oxLDL + 25 μM SAB,significantly reduced lipid accumulation
same,lipid accumulation as intensity of optical density (IOD),[1]; [10],significantly reduced
same,relative cell area (foam cell average area),[1]; [10],significantly reduced
same,reduction of visceral fat weight,"[2]; SAB 100 mg/kg s.c. every other day, 8 weeks, vs controls",60%
same,average visceral fat weight,"[2]; SAB 100 mg/kg s.c. every other day, 8 weeks, controls 81 mg",32 mg
same,average visceral fat weight,"[2]; SAB 100 mg/kg s.c. every other day, 8 weeks, vehicle 81 mg/animal",32 mg/animal
same,fat deposition in the liver (Oil red O staining),[2]; [11],profoundly reduced; also recorded: significantly reduced
same,leaner compared to vehicle treated ApoE KO mice,[2]; [11],17%
same,abdominal fat accumulation,"[2]; SAB 100 mg/kg s.c. every other day, high fat diet 8 weeks, physical inspection",Reduction in abdominal fat was evident; also recorded: substantially reduced; also recorded: either minimal or absent
same,plasma cholesterol levels,"[2]; SAB 100 mg/kg s.c. every other day, high fat diet, 4 and 8 weeks",significantly reduced
same,rate of weight gain (weekly body weight),"[2]; SAB 100 mg/kg subcutaneously every other day, high fat diet 8 weeks, vs vehicle",significantly reduced
same,lipid content in the aorta and extended vessels,"[2]; preliminary analysis, SAB-treated vs vehicle mice",trend toward lipid content reduction
same,CD36 mRNA levels in peritoneal macrophages,CD36 mRNA [3],reduced
same,CD36 mRNA levels in spleen macrophages,CD36 mRNA [3],reduced
same,reduction of initial blood glucose spike in glucose tolerance test,"[4]; 45 minutes after challenge, intraperitoneal injection of 1.5 mg glucose/kg, vehicle less than 10%",75%
same,AUCglucose (glucose area under the curve) in glucose tolerance test,[4]; SAB-treated vs vehicle-treated mice,significant reduction
same,fasting blood glucose levels vs control mice,"[4]; zero, four, and eight weeks of treatment",similar
same,CD36 antagonist identification in high throughput screen,CD36 [5],identified as a CD36 antagonist
O=C(/C=C/c1ccccc1)c1c[nH]c2ccccc12 [3-cinnamoyl indole],CD36 antagonist identification through high-throughput screening,CD36 [6],identified
CCCCCc1c2[n+](cc3c(OC)c(OC)ccc13)CCc1cc3c(cc1-2)OCO3 [13 pentyl berberine],CD36 antagonist identification through high-throughput screening,CD36 [6],identified
Cc1[nH]c2ccccc2c1C[C@@H](NC(=O)[C@@H](N)Cc1cnc[nH]1)C(=O)N[C@@H](C)C(=O)N[C@@H](Cc1c[nH]c2ccccc12)C(=O)N[C@H](Cc1ccccc1)C(=O)N[C@@H](CCCCN)C(N)=O [hexarelin] (H-H[dTrp(2-Me)]AW[dF]K-NH2),binding to CD36 receptors,CD36 [7],binds
same,CD36-mediated uptake of oxLDLs,CD36 [7]; binding site competition,blocks
Cc1c(C)c2c(c(C)c1O)CC[C@@](C)(CCC[C@H](C)CCC[C@H](C)CCCC(C)C)O2 [α-tocopherol],uptake of oxLDLs into macrophages,CD36 [8],can reduce
same,expression of CD36,CD36 [8]; macrophages,can reduce
"MSS202775: CD36 siRNA from exon9, SEQ ID NO: 1 and 2 (chain 1 UAGCUUGGCCAAUAGGACAAAUUCC; chain 2 GGAAUUUGUCCUAUUGGCCAAGCUA; chemistry not given here)",CD36 gene expression (CD36 mRNA levels),CD36 mRNA [9],reduced CD36 gene expression significantly
same,CD36 gene expression (CD36 mRNA levels),CD36 mRNA [9]; listed as siRNA 75,most effective
"MSS202776: CD36 siRNA, exon7, SEQ ID NO: 3 and 4 (chain 1 CUUGUUUGGAACACAGAAGACUUGG; chain 2 CCAAGUCUUCUAUGUUCCAAACAAG; chemistry not given here)",CD36 gene expression (CD36 mRNA levels),CD36 mRNA [9],reduced CD36 gene expression significantly
"MSS202777: CD36 siRNA, exon11, SEQ ID NO: 5 and 6 (chain 1 ACACCAUAAGAUGUACAGUUAUUGG; chain 2 CCAAUAACUGUACAUCUUAUGGUGU; chemistry not given here)",CD36 gene expression (CD36 mRNA levels),CD36 mRNA [9],reduced CD36 gene expression significantly

# Reference: patent US9283243B2, “CD36 inhibition to control obesity and insulin sensitivity” (CORNELL UNIVERSITY CORNELL CENTER FOR TECHNOLOGY, …, priority 2010, dated 2016)
